Source: article PMC2095803 (Nucleic Acids Research, 2007)

Experiments:
[1] = molecular target: T1, DeepVent(exo−) DNA polymerase (Pyrococcus sp. GB-D, UniProt Q51334, D141A/E143A); assay: PEP termination assay; assay type: biochemical, Pyrococcus species GB-D
T1 sequence (Q51334 with tags, fused parts or gaps D141A/E143A): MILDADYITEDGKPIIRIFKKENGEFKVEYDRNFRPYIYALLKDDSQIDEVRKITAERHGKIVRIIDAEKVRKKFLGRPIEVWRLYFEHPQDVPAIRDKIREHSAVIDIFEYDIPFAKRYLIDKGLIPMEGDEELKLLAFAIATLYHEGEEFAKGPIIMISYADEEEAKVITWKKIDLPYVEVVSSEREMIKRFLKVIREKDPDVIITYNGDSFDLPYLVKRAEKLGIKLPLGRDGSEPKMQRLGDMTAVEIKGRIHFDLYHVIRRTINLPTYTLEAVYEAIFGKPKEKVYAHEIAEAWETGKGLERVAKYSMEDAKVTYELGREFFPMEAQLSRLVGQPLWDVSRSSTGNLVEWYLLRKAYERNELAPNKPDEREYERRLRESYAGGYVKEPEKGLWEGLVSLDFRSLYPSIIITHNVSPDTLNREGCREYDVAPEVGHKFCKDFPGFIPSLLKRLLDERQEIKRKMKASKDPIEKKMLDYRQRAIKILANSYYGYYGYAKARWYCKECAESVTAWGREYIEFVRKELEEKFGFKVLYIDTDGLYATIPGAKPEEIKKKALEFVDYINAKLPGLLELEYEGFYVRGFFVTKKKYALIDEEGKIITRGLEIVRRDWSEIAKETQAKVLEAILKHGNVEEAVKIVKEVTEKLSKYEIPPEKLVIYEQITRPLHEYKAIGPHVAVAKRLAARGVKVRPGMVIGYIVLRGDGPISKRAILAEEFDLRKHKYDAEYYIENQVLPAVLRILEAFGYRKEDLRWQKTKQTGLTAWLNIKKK

[2] = molecular target: T2, Bst DNA polymerase (Geobacillus stearothermophilus, UniProt P52026); assay: Five-base CRT sequencing experiment on solid support; assay type: biochemical, Bacillus stearothermophilus
T2 sequence (P52026 289-876 limits assumed): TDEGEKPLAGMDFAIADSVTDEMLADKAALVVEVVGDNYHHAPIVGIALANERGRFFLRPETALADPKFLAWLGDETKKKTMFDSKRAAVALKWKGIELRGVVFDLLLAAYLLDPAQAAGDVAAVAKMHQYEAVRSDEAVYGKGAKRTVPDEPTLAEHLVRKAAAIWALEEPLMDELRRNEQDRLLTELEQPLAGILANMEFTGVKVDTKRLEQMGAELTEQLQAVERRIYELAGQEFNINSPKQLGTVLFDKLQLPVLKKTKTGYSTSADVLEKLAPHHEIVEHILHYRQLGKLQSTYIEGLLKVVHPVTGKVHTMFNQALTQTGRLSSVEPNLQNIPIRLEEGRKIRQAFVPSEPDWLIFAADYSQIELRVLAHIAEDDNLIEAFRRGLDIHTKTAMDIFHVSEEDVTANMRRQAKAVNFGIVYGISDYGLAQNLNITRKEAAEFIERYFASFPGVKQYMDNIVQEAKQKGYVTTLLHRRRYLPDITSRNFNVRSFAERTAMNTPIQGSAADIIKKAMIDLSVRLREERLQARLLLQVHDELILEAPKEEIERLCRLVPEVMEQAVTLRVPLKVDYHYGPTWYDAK

[3] = molecular target: T3, Vent(exo−) DNA polymerase (Thermococcus litoralis, UniProt P30317, D141A/E143A); assay: PEP termination assay; assay type: biochemical
T3 sequence (P30317 with tags, fused parts or gaps D141A/E143A): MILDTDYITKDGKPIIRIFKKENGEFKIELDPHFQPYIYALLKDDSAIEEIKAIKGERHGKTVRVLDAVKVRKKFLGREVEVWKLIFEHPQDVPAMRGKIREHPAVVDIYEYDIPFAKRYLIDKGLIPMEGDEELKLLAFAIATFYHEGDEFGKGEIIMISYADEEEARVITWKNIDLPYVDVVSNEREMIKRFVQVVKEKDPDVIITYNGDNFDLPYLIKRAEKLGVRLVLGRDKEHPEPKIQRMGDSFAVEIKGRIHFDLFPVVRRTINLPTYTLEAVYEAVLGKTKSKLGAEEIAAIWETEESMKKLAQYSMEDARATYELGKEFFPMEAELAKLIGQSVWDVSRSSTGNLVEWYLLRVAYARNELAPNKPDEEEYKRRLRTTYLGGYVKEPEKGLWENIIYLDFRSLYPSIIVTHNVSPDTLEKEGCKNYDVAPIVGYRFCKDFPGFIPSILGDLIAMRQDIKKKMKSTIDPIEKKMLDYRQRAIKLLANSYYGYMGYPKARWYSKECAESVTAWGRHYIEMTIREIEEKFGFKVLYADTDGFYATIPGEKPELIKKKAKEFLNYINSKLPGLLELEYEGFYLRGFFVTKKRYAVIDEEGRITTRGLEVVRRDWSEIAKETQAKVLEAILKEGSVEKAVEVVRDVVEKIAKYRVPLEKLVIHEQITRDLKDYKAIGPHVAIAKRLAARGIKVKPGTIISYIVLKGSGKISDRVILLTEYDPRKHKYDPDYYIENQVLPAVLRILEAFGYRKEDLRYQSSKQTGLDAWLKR

[4] = system: AmpliTaqFS; details: F667Y mutation in AmpliTaqFS; cited from earlier work

| SMILES | IC50 [1] | Share of total signal derived from the correct +1 product [2] | Estimated signal S ([2]; S = (Ceff)^RL, five-base read) | Signal for the correct +1 product (T × C) ([2]; at cycle five) | Incorporation efficiency (I) ([2]; first cycle, on a solid support, 250 nM, Bst) | Deprotection efficiency (D) ([2]; first cycle, on a solid support, 365 nm light) | Cycle efficiency (Ceff) ([2]; first cycle, product of I and D, on a solid support) | IC50 [3] | Ratio ddATP over dATP [4] |
| --- | --- | --- | --- | --- | --- | --- | --- | --- | --- |
| O=[N+]([O-])c1ccccc1CNc1ncnc2c1ncn2[C@H]1C[C@H](O)[C@@H](COP(=O)(O)OP(=O)(O)OP(=O)(O)O)O1 [Compound IIIc, N^6-(2-Nitrobenzyl)-2’-deoxyadenosine-5’-triphosphate] | 11 nM | ≥ 80% | 68.4% | 40% | 98.6% | 94% | 92.7% | 2.1 nM | – |
| Nc1ncnc2c1ncn2[C@H]1CC[C@@H](COP(=O)(O)OP(=O)(O)OP(=O)(O)O)O1 [ddATP, 2′,3′-dideoxyadenosine triphosphate, reference compound] | – | – | – | – | – | – | – | – | 0.59 |
